The values that follow come from patent US8512748B2, “Controlled release system and method for manufacturing the same” (Boehringer Ingelheim International GmbH, priority 2006, dated 2013).

The data set can be described thus: pH-dependent aqueous solubility of the active ingredient. Format: physicochemical.

Consider `O=c1[nH]c2ccccc2n1CCN1CCN(c2cccc(C(F)(F)F)c2)CC1` [active ingredient, 1-[2-(4-(3-trifluoromethyl-phenyl)piperazin-1-yl)ethyl]-2,3-dihydro-1H-benzimidazol-2-one], for which the solubility entry (pH 2) is reported as “good solubility”. Also, where the note is “pH values 5.5-6.8”, the aqueous solubility entry is “poor”.
